Ten compounds from patent US11427548B2 (Arvinas Operations, Inc., priority 2015, dated 2022) can be followed below.

For this experiment, the target named is T1, Androgen Receptor (Homo sapiens, UniProt P10275).
T1 construct: endogenous in cells; host or cells: VCaP cells
T1 sequence (P10275 1-920): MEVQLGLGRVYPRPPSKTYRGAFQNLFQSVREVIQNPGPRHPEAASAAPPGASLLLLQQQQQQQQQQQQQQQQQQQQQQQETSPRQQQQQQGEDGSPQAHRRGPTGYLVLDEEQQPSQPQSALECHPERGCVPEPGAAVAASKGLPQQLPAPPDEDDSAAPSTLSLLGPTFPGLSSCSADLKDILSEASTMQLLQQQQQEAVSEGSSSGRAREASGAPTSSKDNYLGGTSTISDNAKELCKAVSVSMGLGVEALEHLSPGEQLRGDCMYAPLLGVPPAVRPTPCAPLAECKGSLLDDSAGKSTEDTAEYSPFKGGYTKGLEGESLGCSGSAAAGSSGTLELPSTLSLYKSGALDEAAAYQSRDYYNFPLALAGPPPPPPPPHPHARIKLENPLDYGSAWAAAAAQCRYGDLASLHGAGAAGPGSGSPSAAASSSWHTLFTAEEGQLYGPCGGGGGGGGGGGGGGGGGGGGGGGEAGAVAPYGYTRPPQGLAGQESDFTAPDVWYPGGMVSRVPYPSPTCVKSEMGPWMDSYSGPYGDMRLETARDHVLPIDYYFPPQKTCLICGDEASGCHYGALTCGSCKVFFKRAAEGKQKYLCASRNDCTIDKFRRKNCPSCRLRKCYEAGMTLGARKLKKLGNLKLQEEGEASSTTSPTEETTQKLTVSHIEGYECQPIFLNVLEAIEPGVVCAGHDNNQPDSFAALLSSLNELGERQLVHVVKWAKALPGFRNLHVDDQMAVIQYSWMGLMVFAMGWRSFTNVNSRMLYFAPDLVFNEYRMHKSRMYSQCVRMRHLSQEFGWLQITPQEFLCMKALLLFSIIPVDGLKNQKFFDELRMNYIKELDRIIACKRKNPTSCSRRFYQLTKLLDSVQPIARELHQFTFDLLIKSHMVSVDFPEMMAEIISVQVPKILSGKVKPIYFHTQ
Briefly: Androgen Receptor ELISA assay (PathScan AR ELISA) in VCaP cells: AR degradation, Dmax and DC50. The format is cell-based. In short, it runs like this:
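After 24 h exposure of VCaP cells (charcoal-stripped serum, 0.1 nM R1881 agonist, 0.1% DMSO) to seven half-log compound concentrations, residual AR in lysates was measured by PathScan ELISA (TMB absorbance, 450 nm). Cells were plated at 30,000/well and grown at least 3 days beforehand.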
A general note: An ELISA detects its analyte on a solid surface through an enzyme-linked reagent.

[1] abbreviates: read-out: VCaP DC50; VCaP cells; Table 36.
[2] abbreviates: VCaP cells; Table 36; read-out: VCaP DC50.
[3] abbreviates: VCaP, VCaP cells; Table 36; read-out: VCaP Dmax (%).

Read-outs that look alike come from different tables or passages of the source.

What is called Dmax is the greatest extent of degradation seen. For orientation: DC50 means the concentration giving 50% degradation. Consider `Cc1ncsc1-c1ccc([C@H](C)NC(=O)[C@@H]2C[C@@H](O)CN2C(=O)[C@@H](NC(=O)CN2CCOCCN(CCOc3ccc(N4C(=S)N(c5ccc(C#N)c(C(F)(F)F)c5)C(=O)C4(C)C)cc3)CCOCC2)C(C)(C)C)cc1` [Example 643, (2S,4R)-1-((S)-2-(2-(10-(2-(4-(3-(4-cyano-3-(trifluoromethyl)phenyl)-5,5-dimethyl-4-oxo-2-thioxoimidazolidin-1-yl)phenoxy)ethyl)-1,7-dioxa-4,10-diazacyclododecan-4-yl)acetamido)-3,3-dimethylbutanoyl)-4-hydroxy-N-((S)-1-(4-(4-methylthiazol-5-yl)phenyl)ethyl)pyrrolidine-2-carboxamide], for which the Dmax (VCaP, read-out: VCaP Dmax (%)) was less than 25%. Besides, the DC50 under setting [1] was greater than 0.501 µM.
Take `Cc1ncsc1-c1ccc([C@H](C)NC(=O)[C@@H]2C[C@@H](O)CN2C(=O)[C@@H](NC(=O)Cc2ccnc(N3CCN(c4ccc(C(=O)N[C@H]5C(C)(C)[C@H](Oc6ccc(C#N)c(Cl)c6)C5(C)C)cn4)CC3)c2)C(C)(C)C)cc1` [Example 644, N-((1r,3r)-3-(3-chloro-4-cyanophenoxy)-2,2,4,4-tetramethylcyclobutyl)-6-(4-(4-(2-(((S)-1-((2S,4R)-4-hydroxy-2-(((S)-1-(4-(4-methylthiazol-5-yl)phenyl)ethyl)carbam-oyl)pyrrolidin-1-yl)-3,3-dimethyl-1-oxobutan-2-yl)amino)-2-oxoethyl)pyridin-2-yl)piperazin-1-yl)nicotinamide]: the DC50 under setting [2] is less than 0.05 µM. Moreover, the Dmax under setting [3] is greater than 71%.
In the case of `Cc1ncsc1-c1ccc(CNC(=O)[C@@H]2C[C@@H](O)CN2C(=O)[C@@H](NC(=O)CN2CCN(CCOc3ccc(C(=O)N[C@H]4C(C)(C)[C@H](Oc5ccc(C#N)c(Cl)c5)C4(C)C)cc3)CC2)C(C)(C)C)cc1` [Example 645, (2S,4R)-1-((S)-2-(2-(4-(2-(4-(((1r,3r)-3-(3-chloro-4-cyanophenoxy)-2,2,4,4-tetramethylcyclobutyl)carbamoyl)phenoxy)eth-yl)piperazin-1-yl)acetamido)-3,3-dimethylbutanoyl)-4-hydroxy-N-(4-(4-methylthiazol-5-yl)benzyl)pyrrolidine-2-carboxamide], under setting [2], the DC50 was less than 0.05 µM. Under setting [3], the Dmax lay within 51 to 70%.
On to `Cc1ncsc1-c1ccc(CNC(=O)[C@@H]2C[C@@H](O)CN2C(=O)[C@@H](NC(=O)CN2CCN(CCOc3ccc(C(=O)N[C@H]4C(C)(C)[C@H](Oc5ccc(C#N)c(C(F)(F)F)c5)C4(C)C)cc3)CC2)C(C)(C)C)cc1` [Example 646, (2S,4R)-1-((S)-2-(2-(4-(2-(4-(((1r,3r)-3-(4-cyano-3-(trifluoromethyl)phenoxy)-2,2,4,4-tetramethylcyclobutyl)carbamoyl)phenoxy)eth-yl)piperazin-1-yl)actamido)-3,3-dimethylbutanoyl)-4-hydroxy-N-(4-(4-methylthiazol-5-yl)benzyl)pyrrolidine-2-carboxamide], for which the DC50 under setting [2] is less than 0.05 µM. For the same compound, the Dmax under setting [3] was in the range of 26 to 50%.
With `Cc1ncsc1-c1ccc([C@H](C)NC(=O)[C@@H]2C[C@@H](O)CN2C(=O)[C@@H](C(C)C)n2cc(OCCCOCCCn3cnc(-c4ccc(N5C(=S)N(c6ccc(C#N)c(C(F)(F)F)c6)C(=O)C5(C)C)cc4)c3)cn2)cc1` [Example 647, (2S,4R)-1-((R)-2-(4-(3-(3-(4-(4-(3-(4-cyano-3-(trifluoromethyl)phenyl)-5,5-dimethyl-4-oxo-2-thhioxoimidazolidin-1-yl)phenyl)-1H-imidazol-1-yl)propoxy)propoxy)-1H-pyrazol-1-yl)-3-methylbutanoyl)-4-hydroxy-N-((S)-1-(4-(4-methylthiazol-5-yl)phenyl)ethyl)pyrrolidine-2-carboxamide], the Dmax (VCaP, read-out: VCaP Dmax (%)) is less than 25%. Moreover, the DC50 under setting [1] is greater than 0.501 µM.
As for `Cc1ncsc1-c1ccc([C@H](C)NC(=O)[C@@H]2C[C@@H](O)CN2C(=O)[C@H](C(C)C)n2cc(OCCCOCCCn3cnc(-c4ccc(N5C(=S)N(c6ccc(C#N)c(C(F)(F)F)c6)C(=O)C5(C)C)cc4)c3)cn2)cc1` [Example 648, (2S,4R)-1-((S)-2-(4-(3-(3-(4-(4-(3-(4-cyano-3-(trifluoromethyl)phenyl)-5,5-dimethyl-4-oxo-2-thioxoimidazolidin-1-yl)phenyl)-1H-imidazol-1-yl)propoxy)propoxy)-1H-pyrazol-1-yl)-3-methylbutanoyl)-4-hydroxy-N-((S)-1-(4-(4-methylthiazol-5-yl)phenyl)ethyl)pyrrolidine-2-carboxamide], where the note is “VCaP, read-out: VCaP Dmax (%)”, the maximal degradation (Dmax) is less than 25%. Also, the DC50 under setting [1] was greater than 0.501 µM.
`CC[C@H](NC(=O)[C@@H]1C[C@@H](O)CN1C(=O)[C@@H](NC(=O)COCCN1CCN(c2ccc(C(=O)N[C@H]3C(C)(C)[C@H](Oc4ccc(C#N)c(Cl)c4)C3(C)C)cn2)CC1)C(C)(C)C)c1ccc(-c2scnc2C)cc1` [Example 649, N-((1r,3r)-3-(3-chloro-4-cyanophenoxy)-2,2,4,4-tetramethylcyclobutyl)-6-(4-(2-(2-(((S)-1-((2S,4R)-4-hydroxy-2-(((S)-1-(4-(4-methylthiazol-5-yl)phenyl)propyl)carbam-moyl)pyrrolidin-1-yl)-3,3-dimethyl-1-oxobutan-2-yl)amino)-2-oxoethoxy)ethyl)pipera-zin-1-yl)nicotinamide]: under setting [2], the DC50 was less than 0.05 µM. The Dmax under setting [3] is greater than 71%.
For `Cc1ncsc1-c1ccc([C@H](C)NC(=O)[C@@H]2C[C@@H](O)CN2C(=O)C(C(C)C)n2cnc(CCCCOCCCCCOc3ccc(N4C(=S)N(c5ccc(C#N)c(C(F)(F)F)c5)C(=O)C4(C)C)cc3)c2)cc1` (some centres unmarked) [Example 650, 1-(2-(4-(4-((5-(4-(3-(4-cyano-3-(trifluoromethyl)phenyl)-5,5-dimethyl-4-oxo-2-thioxoimidazolidin-1-yl)phenoxy)pentyl)oxy)butyl)-1H-imidazol-1-yl)-3-methylbutanoyl)-4-hydroxy-N-(1-(4-(4-methylthiazol-5-yl)phenyl)ethyl)pyrroli-dine-2-carboxamide], the Dmax (VCaP, read-out: VCaP Dmax (%)) was less than 25%. The DC50 under setting [1] is greater than 0.501 µM.
For the compound `Cc1ncsc1-c1ccc([C@H](C)NC(=O)[C@@H]2C[C@@H](OC(=O)OC(C)C)CN2C(=O)[C@@H](NC(=O)COCCCCCNc2ccc(C(=O)N[C@H]3C(C)(C)[C@H](Oc4ccc(C#N)c(Cl)c4)C3(C)C)cc2)C(C)(C)C)cc1` [Example 652, (3R,5S)-1-((S)-2-(2-((5-((4-(((1r,3r)-3-(3-chloro-4-cyanophenoxy)-2,2,4,4-tetramethylcyclobutyl)carbamoyl)phenyl)amino)pentyl)oxy)acetamido)-3,3-dimethylbutanoyl)-5-(((S)-1-(4-(4-methylthiazol-5-yl)phenyl)ethyl)carbam-oyl)pyrrolidin-3-yl isopropyl carbonate], the DC50 under setting [2] was greater than 0.501 µM. Under setting [3], the Dmax is less than 25%.
With `Cc1ncsc1-c1ccc(C(C)NC(=O)[C@@H]2C[C@@H](OCOC(=O)OC(C)C)CN2C(=O)[C@@H](NC(=O)COCCCCCNc2ccc(C(=O)N[C@H]3C(C)(C)[C@H](Oc4ccc(C#N)c(Cl)c4)C3(C)C)cc2)C(C)(C)C)cc1` (stereo partly drawn) [Example 653, (((3R,5S)-1-((S)-2-(2-((5-((4-(((1r,3r)-3-(3-chloro-4-cyanophenoxy)-2,2,4,4-tetramethylcyclobutyl)carbamoyl)phenyl)amino)pentyl)oxy)acetamido)-3,3-dimethylbutanoyl)-5-(((S)-1-(4-(4-methylthiazol-5-yl)phenyl)ethyl)carbam-oyl)pyrrolidin-3-yl)oxy)methyl isopropyl carbonate], the DC50 under setting [2] is less than 0.05 µM. Also, the Dmax under setting [3] lay in the range of 51 to 70%.
